Data published in US9447044B2, “Thioaryl derivatives as GPR120 agonists” (LG LIFE SCIENCES LTD., priority 2012, dated 2016).
pEC50: −log10 of the molar value.

Each compound was assayed against T1, hGPR120 (Homo sapiens, UniProt Q5NUL3) (assay: Measurement of activity of GPR120 agonist (cell-based assay), calcium fluorescence). Settings: CHO-K1 cells expressing Ga16 and hGPR120; Calcium 5 dye fluorescence; activity class.
T1 construct: expressed in transfected cells; host or cells: CHO-K1
T1 sequence (Q5NUL3 1-361): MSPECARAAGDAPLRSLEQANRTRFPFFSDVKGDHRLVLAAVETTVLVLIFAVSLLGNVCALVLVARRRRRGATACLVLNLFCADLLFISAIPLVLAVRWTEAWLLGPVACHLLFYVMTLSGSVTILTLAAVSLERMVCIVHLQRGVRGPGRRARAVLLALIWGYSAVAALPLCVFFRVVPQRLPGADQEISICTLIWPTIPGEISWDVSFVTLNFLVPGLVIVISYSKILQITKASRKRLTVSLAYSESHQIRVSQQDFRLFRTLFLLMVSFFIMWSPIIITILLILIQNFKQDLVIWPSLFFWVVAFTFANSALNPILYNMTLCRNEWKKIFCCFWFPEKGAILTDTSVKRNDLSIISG
Method: CHO-K1 cells expressing Ga16 and hGPR120 were dispensed into each well of a 96-well plate (3×10^4 cells/100 μl/well) and then incubated in 5% CO2, 37° C. incubator for 18 hours. Each well was treated with 100 μl of Calcium 5 dye (Molecular Devices) solution including 2% DMSO and then incubated in 5% CO2, 37° C. incubator for 1 hour. Serially diluted GPR120 agonists were prepared to a final concentration of 0.5% DMSO in a 96-well plate. Each well was treated with 50 μl of the agonist compounds using Plexstation II, and then fluorescence was measured at Ex 485 nm, Em 525 nm.
Fluorescence increased by the serially diluted GPR120 agonists is calculated as a relative percent (%) value based on the fluorescence represented by the treatment of 0.1% DMSO only. […] The calculation of measurement was carried out by using statistical software (Prizm).
Activity is denoted based on the following criteria: A=>20 μM, B=[…], C=2˜0.2 μM, D=<0.2 μM

| SMILES | pEC50 |
| --- | --- |
| CC(C)Sc1ncccc1COc1c(F)cc(CCC(=O)O)cc1F [Example 1, 3-[3,5-difluoro-4-(2-isopropylsulfanyl-pyridin-3-ylmethoxy)-phenyl]-propionic acid] | > 6.70 |
| CC(C)Sc1ncccc1COc1ccc(CCC(=O)O)cc1 [Example 2, 3-[4-(2-isopropylsulfanyl-pyridin-3-ylmethoxy)-phenyl]-propionic acid] | > 6.70 |
| Cc1cnc(SC(C)C)c(COc2ccc(CC(C)C(=O)O)cc2)c1 (stereo not shown) [Example 3, 3-[4-(2-isopropylsulfanyl-5-methyl-pyridin-3-ylmethoxy)-phenyl]-2-methyl-propionic acid] | 5.70 to 6.70 |
| CC(C)Sc1ncccc1COc1ccc(CC(C)C(=O)O)cc1 (stereo not shown) [Example 4, 3-[4-(2-isopropylsulfanyl-pyridin-3-ylmethoxy)-phenyl]-2-methyl-propionic acid] | 5.70 to 6.70 |
| Cc1cnc(SC(C)C)c(COc2ccc(CCC(=O)O)cc2)c1 [Example 5, 3-[4-(2-isopropylsulfanyl-5-methyl-pyridin-3-ylmethoxy)-phenyl]-propionic acid] | > 6.70 |
| CC(C)Sc1ncccc1COc1ccc(CCC(=O)O)cc1F [Example 6, 3-[3-fluoro-4-(2-isopropylsulfanyl-pyridin-3-ylmethoxy)-phenyl]-propionic acid] | > 6.70 |
| CC(C)Sc1ncccc1COc1ccc(CCC(=O)O)c(F)c1 [Example 7, 3-[2-fluoro-4-(2-isopropylsulfanyl-pyridin-3-ylmethoxy)-phenyl]-propionic acid] | > 6.70 |
| Cc1ccc(COc2c(F)cc(CCC(=O)O)cc2F)c(SC(C)C)n1 [Example 9, 3-[3,5-difluoro-4-(2-isopropylsulfanyl-6-methyl-pyridin-3-ylmethoxy)-phenyl]-propionic acid] | > 6.70 |
| CCSc1ncccc1COc1c(F)cc(CCC(=O)O)cc1F [Example 10, 3-[4-(2-ethylsulfanyl-pyridin-3-ylmethoxy)-3,5-difluoro-phenyl]-propionic acid] | > 6.70 |
| CC(C)CSc1ncccc1COc1c(F)cc(CCC(=O)O)cc1F [Example 11, 3-[3,5-difluoro-4-(2-isobutylsulfanyl-pyridin-3-ylmethoxy)-phenyl]-propionic acid] | > 6.70 |
| CC(C)Sc1ncccc1COc1ccc(CCCC(=O)O)cc1 [Example 13, 4-[4-(2-isopropylsulfanyl-pyridin-3-ylmethoxy)-phenyl]-butyric acid] | > 6.70 |
| CCCSc1ncccc1COc1c(F)cc(CCC(=O)O)cc1F [Example 14, 3-[3,5-difluoro-4-(2-propylsulfanyl-pyridin-3-ylmethoxy)-phenyl]-propionic acid] | > 6.70 |
| O=C(O)CCc1cc(F)c(OCc2cccnc2Sc2ccccc2)c(F)c1 [Example 15, 3-[3,5-difluoro-4-(2-phenylsulfanyl-pyridin-3-ylmethoxy)-phenyl]-propionic acid] | 5.70 to 6.70 |
| CC(C)(C)Sc1ncccc1COc1c(F)cc(CCC(=O)O)cc1F [Example 16, 3-[4-(2-t-butylsulfanyl-pyridin-3-ylmethoxy)-3,5-difluoro-phenyl]-propionic acid] | > 6.70 |
| O=C(O)CCc1cc(F)c(OCc2cccnc2SCC2CC2)c(F)c1 [Example 17, 3-[4-(2-cyclopropylmethylsulfanyl-pyridin-3-ylmethoxy)-3,5-difluoro-phenyl]-propionic acid] | > 6.70 |

More lines, now with the values ahead:

| pEC50 | SMILES |
| --- | --- |
| > 6.70 | CCCSc1ncccc1COc1ccc(C2CC2C(=O)O)cc1F (single isomer, unassigned) [Example 119, 2-[3-fluoro-4-(2-propylsulfanyl-pyridin-3-ylmethoxy)-phenyl]-cyclopropane carboxylic acid] |
| 5.70 to 6.70 | O=C(O)C1CC1c1ccc(OCc2cccnc2SC2CCC2)c(Cl)c1 (single isomer, unassigned) [Example 124, 2-[3-chloro-4-(2-cyclobutylsulfanyl-pyridin-3-ylmethoxy)-phenyl]-cyclopropane carboxylic acid] |
| > 6.70 | O=C(O)C1CC1c1ccc(OCc2cccnc2SC2CCC2)c(Cl)c1 (single isomer, unassigned) [Example 125, 2-[3-chloro-4-(2-cyclobutylsulfanyl-pyridin-3-ylmethoxy)-phenyl]-cyclopropane carboxylic acid] |
| 5.70 to 6.70 | O=C(O)C1CC1c1ccc(OCc2cccnc2SCC2CC2)c(F)c1 (single isomer, unassigned) [Example 129, 2-[4-(2-cyclopropylmethylsulfanyl-pyridin-3-ylmethoxy)-3-fluoro-phenyl]-cyclopropane carboxylic acid] |
| 5.70 to 6.70 | O=C(O)C1CC1c1ccc(OCc2cccnc2SC2CCCC2)c(F)c1 (single isomer, unassigned) [Example 130, 2-[4-(2-cyclopentylsulfanyl-pyridin-3-ylmethoxy)-3-fluoro-phenyl]-cyclopropane carboxylic acid] |
| 5.70 to 6.70 | CC(C)Sc1cccc(COc2ccc(C3CC3C(=O)O)cc2F)n1 (single isomer, unassigned) [Example 131, 2-[3-fluoro-4-(6-isopropylsulfanyl-pyridin-2-ylmethoxy)-phenyl]-cyclopropane carboxylic acid] |
| 5.70 to 6.70 | O=C(O)C1CC1c1ccc(OCc2cccnc2SC2CCC2)c(F)c1 (single isomer, unassigned) [Example 133, 2-[4-(2-cyclobutylsulfanyl-pyridin-3-ylmethoxy)-3-fluoro-phenyl]-cyclopropane carboxylic acid] |
| > 6.70 | O=C(O)C1CC1c1ccc(OCc2cccc(SC3CCCC3)n2)c(F)c1 (single isomer, unassigned) [Example 134, 2-[4-(6-cyclopentylsulfanyl-pyridin-2-ylmethoxy)-3-fluoro-phenyl]-cyclopropane carboxylic acid] |
| 5.70 to 6.70 | O=C(O)C1CC1c1cc(F)c(OCc2cccnc2SCC2CC2)c(F)c1 (single isomer, unassigned) [Example 136, 2-[4-(2-cyclopropylmethylsulfanyl-pyridin-3-ylmethoxy)-3,5-difluoro-phenyl]-cyclopropane carboxylic acid] |
| > 6.70 | O=C(O)C1CC1c1cc(F)c(OCc2cccnc2SCC2CC2)c(F)c1 (single isomer, unassigned) [Example 137, 2-[4-(2-cyclopropylmethylsulfanyl-pyridin-3-ylmethoxy)-3,5-difluoro-phenyl]-cyclopropane carboxylic acid] |
| > 6.70 | CCCSc1ncccc1COc1ccc(C2CC2C(=O)O)cc1F (single isomer, unassigned) [Example 163, 2-[3-fluoro-4-(2-propylsulfanyl-pyridin-3-ylmethoxy)-phenyl]-cyclopropane carboxylic acid] |
| > 6.70 | O=C(O)C1CC1c1ccc(OCc2cccnc2SC2CCCC2)c(F)c1 (single isomer, unassigned) [Example 164, 2-[4-(2-cyclopentylsulfanyl-pyridin-3-ylmethoxy)-3-fluoro-phenyl]-cyclopropane carboxylic acid] |
| > 6.70 | O=C(O)C1CC1c1ccc(OCc2cccnc2SCC2CC2)c(F)c1 (single isomer, unassigned) [Example 165, 2-[4-(2-cyclopropylmethylsulfanyl-pyridin-3-ylmethoxy)-3-fluoro-phenyl]-cyclopropane carboxylic acid] |
| > 6.70 | CC(C)Sc1cccc(COc2ccc(C3CC3C(=O)O)cc2F)n1 (single isomer, unassigned) [Example 166, 2-[3-fluoro-4-(6-isopropylsulfanyl-pyridin-2-ylmethoxy)-phenyl]-cyclopropane carboxylic acid] |
| > 6.70 | O=C(O)C1CC1c1ccc(OCc2cccc(SC3CCCC3)n2)c(F)c1 (single isomer, unassigned) [Example 168, 2-[4-(6-cyclopentylsulfanyl-pyridin-2-ylmethoxy)-3-fluoro-phenyl]-cyclopropane carboxylic acid] |
| > 6.70 | O=C(O)C1CC1c1ccc(OCc2cccnc2SC2CCC2)c(F)c1 (single isomer, unassigned) [Example 169, 2-[4-(2-cyclobutylsulfanyl-pyridin-3-ylmethoxy)-3-fluoro-phenyl]-cyclopropane carboxylic acid] |

Same assay, conditions: CHO-K1 cells expressing Ga16 and hGPR120; Calcium 5 dye fluorescence; numeric value

| pEC50 | SMILES |
| --- | --- |
| 7.57 | O=C(O)C1CC1c1ccc(OCc2cccc(SC3CCC3)n2)c(F)c1 (single isomer, unassigned) [Example 135, 2-[4-(6-cyclobutylsulfanyl-pyridin-2-ylmethoxy)-3-fluoro-phenyl]-cyclopropane carboxylic acid] |
| 8.22 | O=C(O)C1CC1c1ccc(OCc2cccc(SC3CCC3)n2)c(F)c1 (single isomer, unassigned) [Example 167, 2-[4-(6-cyclobutylsulfanyl-pyridin-2-ylmethoxy)-3-fluoro-phenyl]-cyclopropane carboxylic acid] |
| 7.24 | O=C(O)CCc1cc(F)c(OCc2cccnc2SC2CCCC2)c(F)c1 [Example 12, 3-[4-(2-cyclopentylsulfanyl-pyridin-3-ylmethoxy)-3,5-difluoro-phenyl]-propionic acid] |
